Tests used:
[1] = tested on: Staphylococcus aureus CCM 4516/08; experiment: Screen against bacteria, MIC/IC80; assay type: cell-based; conditions: SA
[2] = tested on: Staphylococcus aureus H 5996/08 Methiciline-resistant; experiment: Screen against bacteria, MIC/IC80; assay type: cell-based; conditions: MRSA
[3] = tested on: Staphylococcus epidermidis H 6966/08; experiment: Screen against bacteria, MIC/IC80; assay type: cell-based; conditions: SE
[4] = tested on: Enterococcus sp. J 14365/08; experiment: Screen against bacteria, MIC/IC80; assay type: cell-based; conditions: EF
Escherichia coli CCM4517 = experiment: Screen against bacteria, MIC/IC80; assay type: cell-based; conditions: EC
[5] = tested on: Klebsiella pneumoniae D 11750/08; experiment: Screen against bacteria, MIC/IC80; assay type: cell-based; conditions: KP
[6] = tested on: Klebsiella pneumoniae J 14368/08 ESBL-positive; experiment: Screen against bacteria, MIC/IC80; assay type: cell-based; conditions: KP-E
[7] = tested on: Pseudomonas aeruginosa CCM 1961; experiment: Screen against bacteria, MIC/IC80; assay type: cell-based; conditions: PA
[8] = tested on: Candida albicans ATCC 44859; experiment: In vitro antifungal activity, MIC by microdilution (NCCLS M27-A)
[9] = tested on: Candida albicans ATCC 90028; experiment: as above
[10] = tested on: Candida parapsilosis ATCC 22019; experiment: as above; conditions: CP
Candida krusei ATCC 6258 = experiment: as above
Candida krusei E28 = experiment: as above
Candida tropicalis 156 = experiment: as above; conditions: CT
Candida glabrata 20/l = experiment: as above; conditions: CG
Procedure: (§1) In vitro antifungal activities of the compounds were evaluated on the collection of fungal strains deposited at the Department of Biological and Medical Sciences, Faculty of Pharmacy, Charles University, Czech Republic. All the isolates were maintained on Sabouraud dextrose agar prior to being tested.
(§2) Minimum inhibitory concentrations (MICs) were determined by the microdilution format of the NCCLS M27-A guidelines. […] RPMI 1640 (Sevapharma, Prague) medium supplemented with L-glutamine and buffered with 0.165 M morpholinepropanesulfonic acid to pH 7.0 was used as the test medium. The wells of the microdilution tray contained 100 μl of the RPMI 1640 medium with 2-fold serial dilutions of the compounds (1000 to 0.24 μmol/l for the new compounds) and 100 μl of inoculum suspension. Fungal inoculum in RPMI 1640 was prepared to give a final concentration of 5×103±0.2 cfu·ml-1. The trays were incubated at 35° C. and MICs were read visually for filamentous fungi and photometrically for yeasts as an optical density (OD) at 540 nm after 24 h and 48 h. The MICs were defined as 80% inhibition of the growth of control. MICs were determined twice and in duplicate. The deviations from the usually obtained were no higher than the nearest concentration value up and down the dilution scale.

[11] = tested on: Candida lusitaniae 2446/l; experiment: as above; conditions: CL
[12] = tested on: Aspergillus fumigatus 231; experiment: as above; conditions: AF
Procedure: as §1, §2

Absidia corymbifera 272 = experiment: as above; conditions: AC
[13] = tested on: Trichophyton mentagrophytes 445; experiment: as above; conditions: TM

Row | Compound | MIC/IC80 ([1]; 24 h) | MIC/IC80 ([1]; 48 h) | MIC/IC80 ([2]; 24 h) | MIC/IC80 ([2]; 48 h) | MIC/IC80 ([3]; 24 h) | MIC/IC80 ([3]; 48 h) | MIC/IC80 ([4]; 24 h) | MIC/IC80 ([4]; 48 h) | MIC/IC80 (Escherichia coli CCM4517; 24 h) | MIC/IC80 ([5]; 24 h) | MIC/IC80 ([7]; 24 h) | MIC/IC80 ([8]; CA1, 24 h) | MIC/IC80 ([10]; 24 h) | MIC/IC80 (Candida krusei ATCC 6258; CK1, 24 h) | MIC/IC80 (Candida tropicalis 156; 24 h) | MIC/IC80 (Candida glabrata 20/l; 24 h) | MIC/IC80 ([11]; 24 h) | MIC/IC80 ([12]; 24 h) | MIC/IC80 (Absidia corymbifera 272; 24 h) | MIC/IC80 ([13]; 72 h) | also measured
1 | CCCCCCCCOS(=O)(=O)[O-].CCOCCOC(=O)[C@@H](OC(=O)Cn1cc[n+](C)c1)c1ccccc1 [KG305, S-3-methyl-1-[1-(ethoxyethoxycarbonyl)-1-phenylmethoxycarbonylmethyl]imidazolium octyl sulphate] | >1 mM | >1 mM | >1 mM | >1 mM | >1 mM | >1 mM | >1 mM | >1 mM | >1 mM | >1 mM | >1 mM | >1 mM | >1 mM | >1 mM | >1 mM | >1 mM | >1 mM | >1 mM | >1 mM | >1 mM | MIC/IC80 (Escherichia coli CCM4517; 48 h): >1 mM; MIC/IC80 ([5]; 48 h): >1 mM; MIC/IC80 ([6]; 24 h): >1 mM; MIC/IC80 ([6]; 48 h): >1 mM; MIC/IC80 ([7]; 48 h): >1 mM; MIC/IC80 ([8]; CA1, 48 h): >1 mM; MIC/IC80 ([9]; CA2, 24 h): >1 mM; MIC/IC80 ([9]; CA2, 48 h): >1 mM; MIC/IC80 ([10]; 48 h): >1 mM; MIC/IC80 (Candida krusei ATCC 6258; CK1, 48 h): >1 mM; MIC/IC80 (Candida krusei E28; CK2, 24 h): >1 mM; MIC/IC80 (Candida krusei E28; CK2, 48 h): >1 mM; MIC/IC80 (Candida tropicalis 156; 48 h): >1 mM; MIC/IC80 (Candida glabrata 20/l; 48 h): >1 mM; MIC/IC80 ([11]; 48 h): >1 mM; MIC/IC80 ([12]; 48 h): >1 mM; MIC/IC80 (Absidia corymbifera 272; 48 h): >1 mM; MIC/IC80 ([13]; 120 h): >1 mM
2 | CCCCCOC(=O)[C@H](OC(=O)C[n+]1ccn(C)c1)c1ccccc1 [KG833, R-3-methyl-1-[1-(pentoxycarbonyl)-1-phenylmethoxycarbonylmethyl]imidazolium bromide] | 1 mM | >1 mM | >1 mM | >1 mM | >1 mM | >1 mM | >1 mM | >1 mM | >1 mM | >1 mM | >1 mM | 0.5 mM | >1 mM | 1 mM | 1 mM | 1 mM | >1 mM | 1 mM | 1 mM | 0.5 mM | MIC/IC80 (Escherichia coli CCM4517; 48 h): >1 mM; MIC/IC80 ([5]; 48 h): >1 mM; MIC/IC80 ([6]; 24 h): >1 mM; MIC/IC80 ([6]; 48 h): >1 mM; MIC/IC80 ([7]; 48 h): >1 mM; MIC/IC80 ([8]; CA1, 48 h): >1 mM; MIC/IC80 ([9]; CA2, 24 h): 1 mM; MIC/IC80 ([9]; CA2, 48 h): >1 mM; MIC/IC80 ([10]; 48 h): >1 mM; MIC/IC80 (Candida krusei ATCC 6258; CK1, 48 h): >1 mM; MIC/IC80 (Candida krusei E28; CK2, 24 h): 1 mM; MIC/IC80 (Candida krusei E28; CK2, 48 h): >1 mM; MIC/IC80 (Candida tropicalis 156; 48 h): >1 mM; MIC/IC80 (Candida glabrata 20/l; 48 h): >1 mM; MIC/IC80 ([11]; 48 h): >1 mM; MIC/IC80 ([12]; 48 h): 1 mM; MIC/IC80 (Absidia corymbifera 272; 48 h): 1 mM; MIC/IC80 ([13]; 120 h): 0.5 mM
3 | R-3-methyl-1-[1-(ethoxyethoxycarbonyl)-1-phenylmethoxycarbonylmethyl]imidazolium octyl sulphate [KG301] | >1 mM | >1 mM | >1 mM | >1 mM | >1 mM | >1 mM | >1 mM | >1 mM | >1 mM | >1 mM | >1 mM | >1 mM | >1 mM | >1 mM | >1 mM | >1 mM | >1 mM | >1 mM | >1 mM | >1 mM | MIC/IC80 (Escherichia coli CCM4517; 48 h): >1 mM; MIC/IC80 ([5]; 48 h): >1 mM; MIC/IC80 ([6]; 24 h): >1 mM; MIC/IC80 ([6]; 48 h): >1 mM; MIC/IC80 ([7]; 48 h): >1 mM; MIC/IC80 ([8]; CA1, 48 h): >1 mM; MIC/IC80 ([9]; CA2, 24 h): >1 mM; MIC/IC80 ([9]; CA2, 48 h): >1 mM; MIC/IC80 ([10]; 48 h): >1 mM; MIC/IC80 (Candida krusei ATCC 6258; CK1, 48 h): >1 mM; MIC/IC80 (Candida krusei E28; CK2, 24 h): >1 mM; MIC/IC80 (Candida krusei E28; CK2, 48 h): >1 mM; MIC/IC80 (Candida tropicalis 156; 48 h): >1 mM; MIC/IC80 (Candida glabrata 20/l; 48 h): >1 mM; MIC/IC80 ([11]; 48 h): >1 mM; MIC/IC80 ([12]; 48 h): >1 mM; MIC/IC80 (Absidia corymbifera 272; 48 h): >1 mM; MIC/IC80 ([13]; 120 h): >1 mM
4 | COC(=O)C(OC(=O)C[n+]1ccn(C)c1)c1ccccc1 (stereo not drawn) [KG86, RS-3-methyl-1-[1-(methoxycarbonyl)-1-phenylmethoxycarbonylmethyl]imidazolium octyl sulphate] | >1 mM |  |  |  | >1 mM |  | >1 mM |  | >1 mM | >1 mM | >1 mM | >1 mM | >1 mM | >1 mM | >1 mM | >1 mM | >1 mM | >1 mM | >1 mM | >1 mM | 

— patent US8785655B2, “Ionic liquid solvents” (Dublin City University, priority 2009, dated 2014)
